Data from patent US20130064855A1, “REPROGRAMMING IMMUNE ENVIRONMENT IN BREAST CANCER VIA DENDRITIC CELLS” (BAYLOR RESEARCH INSTITUTE, priority 2011, published 2013).
“Also recorded” adds a separate entry of the source.

Columns and labels:
[1] = tested on: myeloid dendritic cells (mDCs); experiment: mDCs pre-treated with curdlan and cultured with breast tumor derived products; phenotype staining and cytokine in supernatant; format: cell-based, human
Excerpt: Isolation and culture of myeloid dendritic cells: DCs were purified from buffy coat of blood from healthy donors. Briefly, DCs were enriched from mononuclear cells by negative selection using a mixture of antibodies against lineage markers for CD3, CD14, CD16, CD19, CD56 and glycophorin A (Dynabeads® Human DC Enrichment Kit, Invitrogen). Cells from negative fraction were immuno-labeled with anti-human FITC-labeled lineage cocktail (CD3, CD14, CD16, CD19, CD20 and CD56, BD biosciences Cat. 340546); PE-labeled CD123 (mIgG1, clone 9F5, BD biosciences Cat. 340545), QR-labeled HLA-DR (mIgG2a, clone HK14, Sigma-Aldrich Cat. R8144) and APC-labeled CD11c (mIgG2b, clone S—HCL-3, BD biosciences Cat. 340544). DCs (lin^−, CD123^−, HLA-DR^+, CD11c^+) were sorted in a FACS Aria cytometer (BD Bioscience). DCs were seeded at 100×10^3 cells/well in 200 μl of medium (RPMI supplemented with glutamine 2 mM, penicillin 50 U/ml, streptomycin 50 μg/ml, MEM non-essential amino acids 0.1 mM, HEPES buffer 10 mM, sodium pyruvate 0.1 mM and 10% of human AB serum). DCs were cultured with medium alone or in the presence of 20 ng/ml of TSLP, or different tumor derived products. After 48 hrs DCs were harvested and washed. The stimulated cells were stained for phenotype analysis or co-culture with allogeneic naïve CD4 T cells.
Tumor factors preparation: Tumor factors were obtained from supernatant of HS578T cells cultured in vitro or by sonication from tumor cell lines, human breast tumor tissue or tumors from humanized mice. Briefly, cell lines were culture in medium (RPMI supplemented with glutamine 2 mM, penicillin 50 U/ml, streptomycin 50 μg/ml, MEM non-essential amino acids 0.1 mM, HEPES buffer 10 mM, sodium pyruvate 0.1 mM and 10% of fetal calf serum), and when the cells reached 90% of confluence fresh medium was added and left the cells in culture for additional 48 hrs. For sonication cells or tissues were placed in PBS and were disrupted during 30 seconds at 4° C., with the power output adjusted at 4.5 level of the 60 sonic dismembrator (Fisher Scientific). Cellular debris were removed by centrifugation and the supernatant was collected and stored at −80° C.
The present inventors believe that DC activators can modulate the functions of DCs and reprogram the immune microenvironment (FIG. 4 A). FIGS. 4B, 4C and 4D show the results when DCs were purified from buffy coat of blood from healthy donors. DCs were cultured with medium alone or in the presence of tumor derived products (FIG. 4B). The curdlan treatment is 3 min at room temperature prior to adding tumor supernatant. After 48 hrs, DCs were harvested and washed. The stimulated cells were staining for phenotype (OX40L, pSTAT4 and pSTAT6). The supernatant of DC culture was used for cytokine (IL-12p70) examination (FIGS. 4C and 4D).

[2] = tested on: allogenic naive CD4+ T cells; experiment: curdlan-treated, tumor supernatant-activated mDCs co-cultured with allogenic naive CD4+ T cells; intracellular cytokines; format: cell-based, human; conditions: mDCs pre-treated with 100 ug/ml curdlan, MDA-MB231 supernatant 48 hrs, co-culture one week
Excerpt: After one week, cells were collected and re-stimulated for intracellular cytokines analysis. The analysis of different studies showing the effect of curdlan treatment in the induction of TNFa+IL-13+ secreting cells is shown in FIG. 5 B.

[3] = tested on: Hs578T breast cancer cells; experiment: breast tumor growth in tumor bearing humanized mice; format: in vivo, NOD/SCID/β2−/− mice; conditions: curdlan (100 ug/ml) co-injected with DCs and T cells at days 3, 6 and 9 post tumor implantation
Excerpt: Tumor bearing humanized mice: CD34+hematopoietic progenitor cells (HPCs) were obtained from apheresis of adult healthy volunteers mobilized with G-CSF and purified as previously described. The CD34− fraction of apheresis was Ficoll purified, and obtained PBMCs were stored frozen and used as a source of autologous T cells. Three million CD34+HPCs were transplanted intravenously into sublethally irradiated (12 cGy/g body weight of 137Cs γ irradiation) NOD/SCID/β2−/− mice ([…]). After 4 weeks of engraftment 10 million Hs578T breast cancer cells were harvested from cultures and injected subcutaneously into the flanks of the mice. Mice were reconstituted with 10 million CD4+ T cells and 10 million CD8+ T cells autologous to the grafted CD34+ HPCs. CD4+ and CD8+ T cells were positively selected from thawed PBMCs using magnetic selection according to the manufacturer's instructions (Miltenyi Biotec). The purity was routinely >90%. […] Tumor size was monitored every 2-3 d. Tumor volume (ellipsoid) was calculated as follows: [(short diameter)^2×long diameter]/2.
FIGS. 6A and 6B show NOD/SCID/β2−/− mice sub-lethally irradiated the day before tumor implantation. […] Tumor size was monitored every 2-3 d. Tumor volume (ellipsoid) was calculated as follows: [(short diameter)^2×long diameter]/2. […] Supernatant was harvested and cytokines were detected by Luminex.

[4] = tested on: CD8+ T cells; experiment: curdlan-treated, tumor supernatant-activated mDCs co-cultured with allogenic naive total T cells; CD103 staining; format: cell-based, human; conditions: mDCs pre-treated with 100 ug/ml curdlan, MDA-MB231 supernatant 48 hrs, co-culture one week
Method: Sorted mDCs (HLA-DR+/CD11c+/CD123−/Lin−) were pre-treated with 100 ug/ml curdlan and activated by supernatant of a breast cancer cell line (MDA-MB231) for 48 hrs and then co-culture with allogenic naive total T cells (FIG. 7A). After one week, cells were collected and stained with intraepithelial marker, CD 103, together with granzymeA and granzymeB staining CD8+ T cells were sorted from in vitro culture and intratumoral inject into NOD-SCID mice. After 3 days, tumors were harvested and digested with collagenase (FIG. 7B).

[5] = curdlan treatment prior to tumor supernatant, 48 hrs

For β-glucan, the “OX40L expression on mDCs (TSLP-mediated OX40L induction)” value [1, 5] was “inhibition of TSLP-mediated OX40L induction; also recorded: can block OX40L expression”, the “pSTAT4/pSTAT6 ratio in mDCs” value [1, 5] was “pSTAT4/pSTAT6 ratio increase” and the “IL-12p70 secretion by mDCs” value ([1]; mDCs activated by breast tumor supernatant, DC culture supernatant, 48 hrs) was “induction of IL-12p70 secretion; also recorded: secrete higher levels of IL-12p70; also recorded: secretion of high levels of IL-12p70”. For the same substance, the “STAT6 phosphorylation in mDCs” value ([1]; tumor associated mDCs) was “blocking STAT6 phosphorylation; also recorded: block in STATE phosphorylation”, the “expansion of TNFα and IL-13-producing CD4+ T cells (inflammatory Th2 phenotype)” value [2] was “can be inhibited; also recorded: do not expand TNFα and IL-13-producing CD4+ T cells; also recorded: non-expansion of TNFα and IL-13-producing CD4+ T cells” and the “breast tumor growth / development” value [3] was “blocks breast tumor growth; also recorded: can inhibit breast tumor development; also recorded: inhibited breast tumor development”. The “expansion of CD8+ T cells expressing CD103” value [4] was “expand CD8+ T cells expressing CD103”.
